Ten compounds from patent EP0938471B1, “THE PREPARATION AND USE OF ORTHO-SULFONAMIDO ARYL HYDROXAMIC ACIDS AS MATRIX METALLOPROTEINASE AND TACE INHIBITORS” (priority 1996, dated 1998) can be followed below.

Type in all cases: biochemical
One test concerns the target T1, MMP-1 (Homo sapiens, UniProt P03956).
T1 sequence (P03956 100-469): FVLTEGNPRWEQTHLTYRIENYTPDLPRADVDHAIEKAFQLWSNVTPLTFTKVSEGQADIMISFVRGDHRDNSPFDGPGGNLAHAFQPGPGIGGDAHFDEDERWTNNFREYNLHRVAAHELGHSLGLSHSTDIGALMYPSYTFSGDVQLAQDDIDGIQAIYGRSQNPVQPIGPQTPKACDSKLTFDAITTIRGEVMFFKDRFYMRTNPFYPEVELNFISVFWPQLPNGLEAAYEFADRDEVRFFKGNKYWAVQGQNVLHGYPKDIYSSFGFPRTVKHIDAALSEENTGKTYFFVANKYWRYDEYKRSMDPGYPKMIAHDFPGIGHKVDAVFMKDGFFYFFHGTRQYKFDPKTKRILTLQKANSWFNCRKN
Put plainly: MMP-1 inhibition (thiopeptide or fluorescent peptide substrate assay). Particulars: for IC50: read-out: MMP-1 IC50; for MMP-1 % inhibition: concentration given as (10), unit not given.

Another test concerns the target MMP-9 (Homo sapiens, UniProt P14780). Put plainly: MMP-9 inhibition (thiopeptide or fluorescent peptide substrate assay). The conditions noted are these: read-out: MMP-9 IC50.
The target in another test is MMP-13 (Homo sapiens, UniProt P45452). Put plainly: MMP-13 inhibition (thiopeptide or fluorescent peptide substrate assay). Particulars: read-out: MMP-13 IC50.
In another test the target is TACE (Homo sapiens, UniProt P78536). Description: TACE inhibition (fluorescent peptidyl substrate). Particulars: read-out: TACE IC50.
TACE, sequence (P78536 215-824): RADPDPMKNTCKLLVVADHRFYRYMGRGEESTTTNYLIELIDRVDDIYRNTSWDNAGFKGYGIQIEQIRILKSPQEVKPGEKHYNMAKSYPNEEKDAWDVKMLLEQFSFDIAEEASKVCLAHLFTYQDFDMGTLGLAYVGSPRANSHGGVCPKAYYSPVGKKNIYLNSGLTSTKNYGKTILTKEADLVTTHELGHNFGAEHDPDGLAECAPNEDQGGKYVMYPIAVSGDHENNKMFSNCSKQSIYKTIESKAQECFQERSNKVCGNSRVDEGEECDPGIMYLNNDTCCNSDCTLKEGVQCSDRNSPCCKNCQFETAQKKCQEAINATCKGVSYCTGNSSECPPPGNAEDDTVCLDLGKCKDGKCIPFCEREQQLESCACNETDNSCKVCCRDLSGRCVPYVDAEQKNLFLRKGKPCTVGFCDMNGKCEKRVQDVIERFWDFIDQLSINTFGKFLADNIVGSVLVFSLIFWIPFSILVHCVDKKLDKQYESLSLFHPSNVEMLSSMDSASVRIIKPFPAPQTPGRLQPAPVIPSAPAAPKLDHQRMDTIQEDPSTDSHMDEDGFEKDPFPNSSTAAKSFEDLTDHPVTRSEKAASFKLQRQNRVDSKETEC

MMP-9, sequence (P14780 94-707): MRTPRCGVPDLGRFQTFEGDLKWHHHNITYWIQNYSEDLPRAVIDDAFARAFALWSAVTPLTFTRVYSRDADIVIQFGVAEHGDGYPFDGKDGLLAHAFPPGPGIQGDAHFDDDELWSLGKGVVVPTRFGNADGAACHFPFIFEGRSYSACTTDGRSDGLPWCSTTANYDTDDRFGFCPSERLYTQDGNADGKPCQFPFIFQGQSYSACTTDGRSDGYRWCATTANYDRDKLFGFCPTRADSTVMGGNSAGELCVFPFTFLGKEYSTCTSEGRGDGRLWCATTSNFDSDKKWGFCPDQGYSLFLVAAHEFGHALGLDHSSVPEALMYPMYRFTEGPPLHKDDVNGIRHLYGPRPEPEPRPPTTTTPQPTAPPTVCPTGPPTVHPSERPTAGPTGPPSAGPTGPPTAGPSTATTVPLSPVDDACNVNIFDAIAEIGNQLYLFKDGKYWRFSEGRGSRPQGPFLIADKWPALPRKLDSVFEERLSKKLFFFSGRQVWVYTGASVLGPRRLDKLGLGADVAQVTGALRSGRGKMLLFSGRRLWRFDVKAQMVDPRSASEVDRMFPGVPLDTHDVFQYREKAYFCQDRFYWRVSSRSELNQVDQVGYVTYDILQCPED
Method for MMP-13: The enzyme activity is measured by the rate of the color increase. The thiopeptide substrate is made up fresh as a 20 mM stock in 100% DMSO and the DTNB is dissolved in 100% DMSO as a 100 mM stock and stored in the dark at room temperature. Both the substrate and DTNB are diluted together to 1 mM with substrate buffer (50 mM HEPES pH 7.5, 5 mM CaCl2) before use. […] Alternatively, a fluorescent peptide substrate is used. In this assay, the peptide substrate contains a fluorescent group and a quenching group. Upon cleavage of the substrate by an MMP, the fluorescence that is generated is quantitated on the fluorescence plate reader. […] The substrate is dissolved in methanol and stored frozen in 1 mM aliquots. For the assay, substrate and enzymes are diluted in HCBC buffer to the desired concentrations. Compounds are added to the 96 well plate containing enzyme and the reaction is started by the addition of substrate. […] For either the thiopeptide or fluorescent peptide assays, the slope of the line is calculated and represents the reaction rate. […] The mean (x±sem) of the control rate is calculated and compared for statistical significance (p<0.05) with drug-treated rates using Dunnett's multiple comparison test.
Method for TACE: Using 96-well black microtiter plates, each well receives a solution composed of 10 µL TACE (Immunex, final concentration 1µg/mL), 70µL Tris buffer, pH 7.4 containing 10% glycerol (final concentration 10 mM), and 10 µL of test compound solution in DMSO (final concentration 1µM, DMSO concentration <1%) and incubated for 10 minutes at room temperature.
The reaction is read (excitation 340 nm, emission 420 nm) for 10 min. and the increase in fluorescence over time is plotted as a linear line. The slope of the line is calculated and represents the reaction rate.
The linearity of the reaction rate is confirmed (r^2 >0.85). The mean (x±sem) of the control rate is calculated and compared for statistical significance (p<0.05) with drug-treated rates using Dunnett's multiple comparison test.

Turning to `COc1ccc(S(=O)(=O)N(Cc2ccccc2)c2c(OCCO)cccc2C(=O)NO)cc1` [Example 345, 2-[Benzyl-(4-methoxy-benzenesulfonyl)-amino]-N-hydroxy-3-(2-hydroxy-ethoxy)-benzamide], the IC50 (commonly the concentration that gives 50% inhibition) on MMP-1 turned out to be 1160 nM; on MMP-9, 31 nM; at MMP-13 it was 134 nM; on TACE it was 523 nM.

As for `COc1ccc(S(=O)(=O)N(C)c2c(CCC(=O)NO)cc(Br)cc2C(=O)NO)cc1` [Example 349, 5-Bromo-N-hydroxy-3-[2-(hydroxycarbamoyl)-ethyl]-2-[(4-methoxy-benzenesulfonyl)-methyl-amino]-benzamide], the IC50 on MMP-1 stood at 396 nM; at MMP-9, 8 nM; at MMP-13, 9 nM; on TACE, 32 nM.

For `COc1ccc(S(=O)(=O)N(C)c2c(CCC(=O)NO)cccc2C(=O)NO)cc1` [Example 350], the IC50 at MMP-1 is 450 nM; at MMP-9 it was 5 nM; on MMP-13 it was 21 nM; at TACE it was 373 nM.

With `COc1ccc(S(=O)(=O)N(C)c2c(C)cc(C#Cc3ccc(-c4ccccc4)cc3)cc2C(=O)NO)cc1` [Example 353, 5-Biphenyl-4-ylethynyl-N-hydroxy-2-[(4-methoxy-benzenesulfonyl)-methyl-amino]-3-methyl-benzamide], on MMP-1 (read-out: MMP-1 % inhibition, footnote: 1µM), the inhibition – broadly, the percentage by which the read-out fell short of the control – at 1 µM came to 23%. Besides, the half-inhibitory concentration (IC50) was 61 nM at MMP-9, 141 nM at MMP-13 and 780 nM at TACE.

Take `COc1ccc(S(=O)(=O)N(C)c2c(C)cc(CCc3ccc(-c4ccccc4)cc3)cc2C(=O)NO)cc1` [Example 355, 5-(2-Biphenyl-4-yl-ethyl)-N-hydroxy-2-[(4-methoxy-benzenesulfonyl)-methyl-amino]-3-methyl-benzamide]: the IC50 at MMP-1 came out at 701 nM; at MMP-9, 28 nM; at MMP-13 it was 20 nM; at TACE it was 288 nM.

For the compound `CCCCCCCCCCC#Cc1cc(C)c(N(C)S(=O)(=O)c2ccc(OC)cc2)c(C(=O)NO)c1` [Example 358, 5-Dodec-1-ynyl-N-hydroxy-2-[(4-methoxy-benzenesulfonyl)-methyl-amino]-3-methyl-benzamide], the MMP-1 % inhibition on MMP-1 was 25%(10). Besides, the IC50 is 101 nM on MMP-9, 107 nM at MMP-13 and 1050 nM on TACE.

Regarding `CCCCCCCCCCCCc1cc(C)c(N(C)S(=O)(=O)c2ccc(OC)cc2)c(C(=O)NO)c1` [Example 360, 5-Dodecyl-N-hydroxy-2-[(4-methoxy-benzenesulfonyl)-methyl-amino]-3-methyl-benzamide], the MMP-1 % inhibition at MMP-1 is recorded as 14%(10). Besides, the IC50 at MMP-9 stood at 525 nM; on MMP-13, 1260 nM; on TACE, 1400 nM.

On to `COCc1cccc(C(=O)NO)c1N(Cc1cccnc1)S(=O)(=O)c1ccc(OC)cc1` [Example 363, N-Hydroxy-2-[(4-methoxy-benzenesulfonyl)-pyridin-3-ylmethyl-amino]-3-methoxymethyl-benzamide], for which the concentration for half-maximal inhibition (IC50) came to 449 nM on MMP-1, 20 nM on MMP-9, 54 nM at MMP-13 and 137 nM at TACE.

Consider `COc1ccc(S(=O)(=O)N(Cc2cccnc2)c2c(C(=O)NO)cccc2C(=O)OC(C)(C)C)cc1` [Example 367, N-Hydroxy-2-[(4-methoxy-benzenesulfonyl)-pyridin-3-ylmethyl-amino]-isophthalamic acid tert-butyl ester], for which the IC50 at MMP-1 came to 597 nM; on MMP-9 it was 12 nM; on MMP-13, 13 nM; on TACE, 2700 nM.

With `COC(=O)c1cccc(C(=O)NO)c1N(C)S(=O)(=O)c1ccc(OC)cc1` [Example 373, N-Hydroxy-2-[(4-methoxy-benzenesulfonyl)-methyl-amino]-isophthalamic acid methyl ester], the IC50 at MMP-1 was determined as 1280 nM; at MMP-9 it was 26 nM; on MMP-13, 59 nM; on TACE, 539 nM.
